Reference: paper PMC10695193 (RSC Advances, 2023)

Tests used:
HCT-116 = test: MTT anti-proliferative assay, HCT-116; format: cell-based; details: for IC50: Homo sapiens, HCT-116, 72 h, read-out: IC50 HCT116; for folds toxic in HCT-116 than in normal VERO cells: HCT-116 versus VERO
EGFR^T790M = EGFR^T790M (Homo sapiens, UniProt P00533, T790M); test: EGFR^T790M kinase inhibitory assay; format: biochemical
A549 = test: MTT anti-proliferative assay, A549; format: cell-based; details: for IC50: Homo sapiens, A549, 72 h, read-out: IC50 A549; for folds toxic in A549 than in ordinary VERO cells: A549 versus VERO
VEGFR-2 = VEGFR-2 (Homo sapiens, UniProt P35968); test: VEGFR-2 kinase inhibitory assay; format: biochemical
VEGFR-2, sequence (P35968 20-1356): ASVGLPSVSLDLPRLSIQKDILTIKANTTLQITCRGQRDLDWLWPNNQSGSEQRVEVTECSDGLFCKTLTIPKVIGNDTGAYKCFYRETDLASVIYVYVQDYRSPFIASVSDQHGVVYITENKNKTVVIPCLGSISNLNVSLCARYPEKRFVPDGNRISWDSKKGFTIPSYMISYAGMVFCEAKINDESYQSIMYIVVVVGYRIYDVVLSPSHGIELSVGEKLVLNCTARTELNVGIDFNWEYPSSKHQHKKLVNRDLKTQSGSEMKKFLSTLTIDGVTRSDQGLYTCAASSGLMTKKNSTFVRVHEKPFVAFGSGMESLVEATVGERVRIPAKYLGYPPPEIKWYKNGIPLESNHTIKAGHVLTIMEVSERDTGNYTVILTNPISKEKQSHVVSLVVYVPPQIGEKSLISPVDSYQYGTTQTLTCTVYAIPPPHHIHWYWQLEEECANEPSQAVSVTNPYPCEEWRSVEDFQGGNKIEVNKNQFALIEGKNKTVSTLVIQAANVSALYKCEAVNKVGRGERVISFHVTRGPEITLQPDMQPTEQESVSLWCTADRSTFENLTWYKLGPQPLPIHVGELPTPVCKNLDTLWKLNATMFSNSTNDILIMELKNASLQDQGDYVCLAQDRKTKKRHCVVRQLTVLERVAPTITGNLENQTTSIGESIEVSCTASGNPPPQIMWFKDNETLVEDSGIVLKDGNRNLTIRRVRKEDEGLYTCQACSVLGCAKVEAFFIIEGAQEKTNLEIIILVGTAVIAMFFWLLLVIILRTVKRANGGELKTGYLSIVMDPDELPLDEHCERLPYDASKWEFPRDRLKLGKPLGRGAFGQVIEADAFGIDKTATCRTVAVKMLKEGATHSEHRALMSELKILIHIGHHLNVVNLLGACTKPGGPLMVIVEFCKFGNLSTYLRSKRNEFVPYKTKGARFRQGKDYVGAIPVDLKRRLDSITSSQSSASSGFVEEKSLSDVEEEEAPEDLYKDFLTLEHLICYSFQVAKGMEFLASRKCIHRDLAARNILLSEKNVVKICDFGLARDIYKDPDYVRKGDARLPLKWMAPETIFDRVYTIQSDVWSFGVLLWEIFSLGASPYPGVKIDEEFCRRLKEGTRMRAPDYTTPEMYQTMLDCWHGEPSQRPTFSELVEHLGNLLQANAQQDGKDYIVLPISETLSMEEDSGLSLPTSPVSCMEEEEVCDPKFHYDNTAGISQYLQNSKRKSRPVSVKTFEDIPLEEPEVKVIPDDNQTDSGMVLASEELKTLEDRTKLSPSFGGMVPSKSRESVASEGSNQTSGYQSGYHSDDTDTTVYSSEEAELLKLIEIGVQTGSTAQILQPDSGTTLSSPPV

HepG2 = test: MTT anti-proliferative assay, HepG2; format: cell-based; details: for IC50: Homo sapiens, HepG2, 72 h, read-out: IC50 HepG2; for fold times more toxic in HepG-2 than in VERO normal cells: HepG-2 versus VERO
MCF-7 = test: MTT anti-proliferative assay, MCF-7; format: cell-based; details: for IC50: Homo sapiens, MCF7, 72 h, read-out: IC50 MCF-7; for folds toxic in MCF-7 than in ordinary VERO cells: MCF-7 versus VERO

EGFR^T790M, sequence (P00533 25-1210 T790M): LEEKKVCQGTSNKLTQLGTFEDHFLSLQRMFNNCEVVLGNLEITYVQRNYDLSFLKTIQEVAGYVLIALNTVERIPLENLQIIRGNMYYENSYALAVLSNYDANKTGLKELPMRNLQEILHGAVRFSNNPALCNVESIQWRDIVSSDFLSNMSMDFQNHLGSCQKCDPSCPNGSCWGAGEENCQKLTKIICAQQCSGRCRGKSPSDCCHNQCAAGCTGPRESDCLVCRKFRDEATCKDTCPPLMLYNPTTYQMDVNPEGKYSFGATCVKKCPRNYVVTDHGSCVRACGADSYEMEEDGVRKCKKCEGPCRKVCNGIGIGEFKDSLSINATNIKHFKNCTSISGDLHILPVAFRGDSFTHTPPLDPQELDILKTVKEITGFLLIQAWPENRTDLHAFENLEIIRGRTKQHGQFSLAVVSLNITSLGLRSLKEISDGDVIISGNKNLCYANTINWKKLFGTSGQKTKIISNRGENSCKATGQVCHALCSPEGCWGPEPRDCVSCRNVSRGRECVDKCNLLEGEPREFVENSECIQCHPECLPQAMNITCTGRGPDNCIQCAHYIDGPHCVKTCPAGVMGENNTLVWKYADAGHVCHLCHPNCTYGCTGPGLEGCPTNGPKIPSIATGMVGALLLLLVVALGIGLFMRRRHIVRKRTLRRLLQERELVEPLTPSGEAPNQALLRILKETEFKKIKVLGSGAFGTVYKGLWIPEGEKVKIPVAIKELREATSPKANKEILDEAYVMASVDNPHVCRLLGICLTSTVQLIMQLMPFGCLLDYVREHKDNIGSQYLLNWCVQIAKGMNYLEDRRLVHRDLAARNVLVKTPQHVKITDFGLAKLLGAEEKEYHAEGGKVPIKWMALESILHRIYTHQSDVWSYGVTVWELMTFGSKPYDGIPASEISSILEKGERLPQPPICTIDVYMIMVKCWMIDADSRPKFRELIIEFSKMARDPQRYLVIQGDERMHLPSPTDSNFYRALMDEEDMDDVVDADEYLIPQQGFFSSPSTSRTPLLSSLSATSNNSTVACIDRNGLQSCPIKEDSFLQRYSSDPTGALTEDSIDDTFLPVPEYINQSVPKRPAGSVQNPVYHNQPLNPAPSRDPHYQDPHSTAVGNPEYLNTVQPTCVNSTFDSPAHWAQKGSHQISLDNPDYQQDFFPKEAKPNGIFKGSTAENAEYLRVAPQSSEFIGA

`NC1=NOC(=O)C1=NNc1ccc(N=Nc2ccccc2)cc1` [Compound 3, 3-Amino-4-{2-[4-(phenyldiazenyl)phenyl]hydrazono}isoxazol-5(4H)-one] was tested, and the IC50 (HCT-116) was 16.8 ± 3.7 µM, the IC50 (EGFR^T790M) was 2.1 ± 0.25 µM and the IC50 (A549) was 25.5 ± 3.5 µM. For the same compound, the IC50 (VEGFR-2) was 3.25 ± 0.5 µM, the IC50 (HepG2) was 19 ± 4.4 µM and the IC50 (MCF-7) was 17.6 ± 4.5 µM.
Work on `NC1=NNC(=O)C1=NNc1ccc(N=Nc2ccccc2)cc1` [Compound 4, 5-Amino-4-{2-[4-(phenyldiazenyl)phenyl]hydrazono}-2,4-dihydro-3H-pyrazol-3-one] yielded an IC50 (HCT-116) of 11.3 ± 3.1 µM, an IC50 (EGFR^T790M) of 1.2 ± 0.35 µM and an IC50 (A549) of 10.8 ± 1.5 µM. It also gave an IC50 (VEGFR-2) of 1.85 ± 0.1 µM, an IC50 (HepG2) of 10.6 ± 3 µM and an IC50 (MCF-7) of 11.3 ± 3.3 µM.
In the case of `NC1=NN(c2ccccc2)C(=O)C1=NNc1ccc(N=Nc2ccccc2)cc1` [Compound 5, 5-Amino-2-phenyl-4-{2-[4-(phenyldiazenyl)phenyl]hydrazono}-2,4-dihydro-3H-pyrazol-3-one], the “folds toxic in HCT-116 than in normal VERO cells” value (shortened to “folds toxic in HCT-116 than”) (HCT-116) is reported as 5.53 folds, the IC50 (HCT-116) is reported as 8.12 ± 0.9 µM and the IC50 (EGFR^T790M) is reported as 0.4 ± 0.35 µM. The “folds toxic in A549 than in ordinary VERO cells” value (“folds toxic in A549 than” for short) (A549) was 8.86 folds, the IC50 (A549) was 6.5 ± 1.5 µM and the IC50 (VEGFR-2) was 1.25 ± 0.5 µM. The “fold times more toxic in HepG-2 than in VERO normal cells” value (shortened to “fold times more toxic in HepG-2 than”) (HepG2) was 5.72 fold, the IC50 (HepG2) was 7.8 ± 0.7 µM and the IC50 (MCF-7) was 6.98 ± 1.1 µM. The “folds toxic in MCF-7 than in ordinary VERO cells” value (from here on “folds toxic in MCF-7 than”) (MCF-7) was 6.21 folds.
For `NC1=NN(c2ccc([N+](=O)[O-])cc2[N+](=O)[O-])C(=O)C1=NNc1ccc(N=Nc2ccccc2)cc1` [Compound 6, 5-Amino-2-(2,4-dinitrophenyl)-4-{2-[4-(phenyldiazenyl)phenyl]hydrazono}-2,4-dihydro-3H-pyrazol-3-one], the “folds toxic in HCT-116 than” value (HCT-116) was 4.47 folds, the IC50 (HCT-116) was 10.1 ± 2.9 µM and the IC50 (EGFR^T790M) was 0.35 ± 0.15 µM. The “folds toxic in A549 than” value (A549) was 6.54 folds, the IC50 (A549) was 5.88 ± 0.5 µM and the IC50 (VEGFR-2) was 1.6 ± 0.5 µM. For the same compound, the “fold times more toxic in HepG-2 than” value (HepG2) was 5.49 fold, the IC50 (HepG2) was 8.17 ± 2.6 µM and the IC50 (MCF-7) was 9.11 ± 2.7 µM. For the same compound, the “folds toxic in MCF-7 than” value (MCF-7) was 4.59 folds.
With `NC(=O)N1N=C(N)C(N=Nc2ccc(N=Nc3ccccc3)cc2)C1=O` (stereo not drawn) [Compound 7, 3-Amino-5-oxo-4-{[4-(phenyldiazenyl)phenyl]diazenyl}-4,5-dihydro-1H-pyrazole-1-carboxamide] the IC50 (HCT-116) was 17.5 ± 4 µM, the IC50 (EGFR^T790M) was 0.9 ± 0.25 µM and the IC50 (A549) was 8.5 ± 0.5 µM. It also gave an IC50 (VEGFR-2) of 2.35 ± 0.2 µM, an IC50 (HepG2) of 15.6 ± 3.5 µM and an IC50 (MCF-7) of 14.2 ± 3.5 µM.
Compound `N#CC(=NNc1ccc(N=Nc2ccccc2)cc1)c1nc(=S)[nH][nH]1` [Compound 9, N-[4-(Phenyldiazenyl)phenyl]-5-thioxo-2,5-dihydro-1H-1,2,4-triazole-3-carbohydrazonoyl-cyanide] has an IC50 (HCT-116) of 16.8 ± 3.3 µM, an IC50 (EGFR^T790M) of 1.35 ± 0.15 µM and an IC50 (A549) of 12.2 ± 2.5 µM. For the same compound, the IC50 (VEGFR-2) was 2 ± 0.1 µM, the IC50 (HepG2) was 14.5 ± 2.8 µM and the IC50 (MCF-7) was 13.8 ± 3 µM.
In the case of `N#Cc1nn(-c2ccc(N=Nc3ccccc3)cc2)c(=S)n(-c2ccccc2)c1=O` [Compound 10, 5-Oxo-4-phenyl-2-[4-(phenyldiazenyl)phenyl]-3-thioxo-2,3,4,5-tetrahydro-1,2,4-triazine-6-carbonitrile], the “folds toxic in HCT-116 than” value (HCT-116) is reported as 4.96 folds, the IC50 (HCT-116) is reported as 9.23 ± 2.2 µM and the IC50 (EGFR^T790M) is reported as 0.5 ± 0.25 µM. For the same compound, the “folds toxic in A549 than” value (A549) was 8.67 folds, the IC50 (A549) was 7.35 ± 1.5 µM and the IC50 (VEGFR-2) was 1.5 ± 0.1 µM. For the same compound, the “fold times more toxic in HepG-2 than” value (HepG2) was 6.39 fold, the IC50 (HepG2) was 6.81 ± 1.9 µM and the IC50 (MCF-7) was 7.28 ± 2.4 µM. For the same compound, the “folds toxic in MCF-7 than” value (MCF-7) was 5.81 folds.
Compound `N#Cc1nn(-c2ccc(N=Nc3ccccc3)cc2)c(=S)[nH]c1=O` [Compound 11, 5-Oxo-2-[4-(phenyldiazenyl)phenyl]-3-thioxo-2,3,4,5-tetrahydro-1,2,4-triazine-6-carbonitrile] has an IC50 (HCT-116) of 37.9 ± 4.6 µM, an IC50 (EGFR^T790M) of 2.5 ± 0.35 µM and an IC50 (A549) of 30.2 ± 3.5 µM. For the same compound, the IC50 (VEGFR-2) was 3.85 ± 0.5 µM, the IC50 (HepG2) was 35.6 ± 4.8 µM and the IC50 (MCF-7) was 39.2 ± 4.8 µM.
Work on `N#Cc1nn(-c2ccc(N=Nc3ccccc3)cc2)c(=O)[nH]c1=O` [Compound 12, 3,5-Dioxo-2-[4-(phenyldiazenyl)phenyl]-2,3,4,5-tetrahydro-1,2,4-triazine-6-carbonitrile] yielded an IC50 (HCT-116) of 22.5 ± 4.8 µM, an IC50 (EGFR^T790M) of 0.95 ± 0.35 µM and an IC50 (A549) of 9.25 ± 1.5 µM. The IC50 (VEGFR-2) was 3.5 ± 0.5 µM, the IC50 (HepG2) was 21.1 ± 4.9 µM and the IC50 (MCF-7) was 30.2 ± 4.8 µM.
`N#Cc1nn(-c2ccc(N=Nc3ccccc3)cc2)c(=N)[nH]c1=O` [Compound 13, 3-Imino-5-oxo-2-[4-(phenyldiazenyl)phenyl]-2,3,4,5-tetrahydro-1,2,4-triazine-6-carbonitrile] showed an IC50 (HCT-116) of 20.1 ± 3.5 µM, an IC50 (EGFR^T790M) of 1.5 ± 0.15 µM and an IC50 (A549) of 15.5 ± 2.5 µM. The IC50 (VEGFR-2) was 3.35 ± 0.5 µM, the IC50 (HepG2) was 20.5 ± 4.2 µM and the IC50 (MCF-7) was 23.1 ± 3.8 µM.
For `N#Cc1nn(-c2ccc(N=Nc3ccccc3)cc2)c(=N)n(S(=O)(=O)c2ccc(N)cc2)c1=O` [Compound 14, 4-[(4-Aminophenyl)sulfonyl]-3-imino-5-oxo-2-[4-(phenyldiazenyl)phenyl]-2,3,4,5-tetrahydro-1,2,4-triazine-6-carbonitrile], the “folds toxic in HCT-116 than” value (HCT-116) was 7.68 folds, the IC50 (HCT-116) was 8.44 ± 2.6 µM and the IC50 (EGFR^T790M) was 0.25 ± 0.15 µM. For the same compound, the “folds toxic in A549 than” value (A549) was 10.72 folds, the IC50 (A549) was 5.15 ± 1.5 µM and the IC50 (VEGFR-2) was 0.95 ± 0.1 µM. The “fold times more toxic in HepG-2 than” value (HepG2) was 6.86 fold, the IC50 (HepG2) was 6.23 ± 2.3 µM and the IC50 (MCF-7) was 6.37 ± 2.5 µM. The “folds toxic in MCF-7 than” value (MCF-7) was 5.76 folds.
Compound `C#Cc1cccc(Nc2ncnc3cc(OCCOC)c(OCCOC)cc23)c1` [Erlotinib, reference compound] has an IC50 (MCF-7) of 8.2 ± 0.34 µM.
In the case of `CNC(=O)c1cc(Oc2ccc(NC(=O)Nc3ccc(Cl)c(C(F)(F)F)c3)cc2)ccn1` [Sorafenib, reference compound], the IC50 (HepG2) is reported as 4 ± 0.33 µM.
